Measured values: US20180021303A1, “BKCA CHANNEL ACTIVATOR FOR TREATING MUSCULAR DISORDER” (Canbex Therapeutics Limited, priority 2015, published 2018)

How the values were obtained:
[1] = tested on: Biozzi ABH mice with visible spasticity (relapsing progressive experimental autoimmune encephalomyelitis); test: Spasticity (limb stiffness against a strain gauge) in Biozzi ABH mice with relapsing progressive experimental autoimmune encephalomyelitis; assay type: in vivo, mouse; conditions: result in words
Description: BMS 204352 and NS 1619 were dissolved in ethanol:cremophor:phosphate buffered saline 1:1:18. […] Paxilline was used at 1 mg/kg, just below doses reported to cause tremors in mice.
Biozzi ABH were injected with mouse spinal cord homogenate in Freunds adjuvant on day 0 and day 7 based on published protocols (Al-Izki S. et al. Mult Scler Rel Dis. 2012; 1: 29-38 and relapsing progressive experimental autoimmune encephalomyelitis developed. Following the development of visible spasticity animals were randomly allocated to treatment groups and spasticity was assessed by measuring limb stiffness against a strain guage (Pryce G. et al. FASEB J. 28: 2014; 117-130).
Animals were injected with: • BMS 204352: 20 mg/kg i.p. n=11 (FIG. 1; Table 2); • NS 1619: 10 mg/kg i.p. n=13 (FIG. 2; Table 1); • NS 11021: 10 mg/kg i.p. n=13 (FIG. 3; Table 3) in ethanol:cremophor:PBS (1:1:18).

[2] = from previously published data; cited from earlier work
[3] = from previously published data; cited from earlier work; remark: listed apart in the source

Structure (SMILES)	Efficacy in a mouse model of spasticity in multiple sclerosis [1]	CNS penetration [2]	Tolerability [3]
COc1ccc(Cl)cc1[C@]1(F)C(=O)Nc2cc(C(F)(F)F)ccc21 [BMS 204352, (3S)-3-(5-chloro-2-methoxyphenyl)-3-fluoro-1,3-dihydro-6-(trifluoromethyl)-2H-Indol-2-one]	effective	CNS penetrant	well tolerated
O=c1[nH]c2cc(C(F)(F)F)ccc2n1-c1cc(C(F)(F)F)ccc1O [NS 1619, 1,3-dihydro-1-[2-hydroxy-5-(trifluoromethyl)phenyl]-5-(trifluoromethyl)-2H-benzimidazol-2-one]		CNS excluded	
